{"source": "patent US20220213082A1", "about": "“PRODRUG OF CASPASE INHIBITOR” (LG CHEM, LTD., priority 2019, published 2022)", "tested_on": "recombinant human carboxylesterases (CE1b, CE1c and CE2)", "experiment": "Hydrolysis test by hydrolase (recombinant human carboxylesterases)", "type": "in vitro ADME", "protocol": "Various recombinant human carboxylesterases (CE1b, CE1c and CE2) were prepared in order to confirm the hydrolysis tendency of the prodrug by carboxylesterase (CE) which is a hydrolase. The initial enzyme concentration provided by the manufacturer was 5 mg/mL, which was diluted 1/50 in 100 mM potassium phosphate buffer to obtain a protein solution of 100 μg/mL. For the compound of Example 1—which is a prodrug compound to be tested, 5 mg/mL DMSO stock was used as a working solution, which was diluted 1/100 in acetonitrile to obtain 50 μg/mL concentration solution, and again diluted to a concentration of 1/100 in 100 mM potassium phosphate buffer to obtain a drug solution with a final concentration of 500 ng/mL. […] The samples were deproteinized with acetonitrile containing an internal standard (IS) and centrifuged, and the supernatant was injected into LC-MS/MS for analysis. By correcting the obtained peak area of the prodrug with the peak area of IS, the peak response at the time of collection of each sample was obtained, and the residual ratio (% remaining) compared to the initial value was converted. […]\nSuch result is analyzed that the compound of Example 1 was hydrolyzed by an esterase present in the reaction system and converted into a compound of Formula 2, which is the parent drug.", "data": [{"smiles": "CC(=O)O[C@]1(CF)OC(=O)C[C@@H]1NC(=O)[C@]1(C(C)C)CC(c2nccc3ccccc23)=NO1", "note": "[Example 1, (2S,3S)-2-(fluoromethyl)-3-((R)-5-isopropyl-3-(isoquinolin-1-yl)-4,5-dihydroisoxazole-5-carboxamido)-5-oxotetrahydrofuran-2-yl acetate]", "values": [{"measurement": "contribution of each human recombinant CE isozyme to hydrolysis into compound of Formula 2", "setting": "CE1b, CE1c, CE2 compared", "value": "greater by CE1b and CE1c than by CE2"}, {"measurement": "residual ratio (% remaining) of prodrug", "setting": "spiked with human recombinant CE isozyme, after reaction for 60 minutes, LC-MS/MS", "value": "most of the prodrug was lost"}]}]}
